# According to paper PMC10011573, “Development of novel broad-spectrum antimicrobial lipopeptides derived from plantaricin NC8 β” (Scientific Reports, 2023):
# Non-standard residues stand in square brackets, D forms with d. Residues, ends and D or L forms follow the SMILES beside them. *: point of attachment. Heptanoyl = CCCCCCC(=O)*; Hexanoyl = CCCCCC(=O)*
# What was measured:
# [1] = system: S. aureus (ATCC 29213, MSSA); settings: ATCC 29213, 20 h
# Protocol: (§1) S. aureus (ATCC 29213, MSSA, ATCC, Manassas, VA), E. coli (K-12 MG1655) and clinical isolates of S. aureus, E. coli, E. faecium, K. pneumoniae, A. baumannii, P. aeruginosa and E. cloacae obtained from the Department of Laboratory Medicine at Örebro University Hospital were streaked on Luria–Bertani (LB) agar plates and incubated at 37 °C overnight. Single colonies were inoculated into 5 ml of LB broth and incubated on a shaker (400 rpm) at 37 °C overnight. The bacterial concentrations were determined by viable count and were adjusted to correlate with approximately 10^9 CFU/ml.
# (§2) The broth microdilution method was used to determine minimal inhibitory concentration (MIC) and minimal bactericidal concentration (MBC), in accordance with the EUCAST standards for the broth microdilution method. Two-fold serial dilutions of the lipopeptides were used, and the final concentrations ranged from 0.19 to 100 µM. In brief, two-fold serial dilutions of the lipopeptides were performed in a 96-well plate in PBS, with a final volume of 100 µl per well, after which 100 µl of LB-broth media containing approximately 5 × 10^5 CFU/ml of bacteria was added to each well. The plate was then incubated for 20 h in 37 °C on a shaker (400 rpm). The effect of lipopeptide-antibiotic combinations was investigated by performing checkerboard assays. The assays were performed in accordance with the MIC and MBC tests conducted above, but with horizontal and longitudinal two-fold serial dilutions of the tested compounds. […] The fractional inhibitory concentration (FIC) and fractional bactericidal concentration (FBC) were calculated by the equation (MIC or MBC of peptide in combination/MIC or MBC of peptide alone) + (MIC or MBC of antibiotic in combination/MIC or MBC of antibiotic alone). Synergy was defined as FIC/FBC ≤ 0.5, additive when 0.5 < FIC/FBC ≤ 1, indifferent when 1 < FIC/FBC < 2 and antagonistic when FIC/FBC ≥ 2. All experiments were repeated at least three times.
# E. coli (K-12 MG1655) = settings: Table 3; K-12 MG1655; broth microdilution, 50:50 PBS/LB-broth, 200 µL, 20 h, 37 °C
# Protocol: as §1, §2
# [2] = Carboxyfluorescein release assay, bacterial liposome model; format: biochemical; settings: 75:25 POPC:POPG liposomes, 25 µM lipid, 10 mM PBS pH 7.4, 10^–5–10^2 µM peptide, 60 min, fluorescence, Hill fit, n = 3; read-out: EC50 Bacterial (concentration that triggers 50% CF release)
# Protocol: (§3) Liposomes were prepared by thin-film hydration method. Lipids stock solutions (10 mg/ml in chloroform, Avanti Polar Lipids, Inc., Alabaster, United States) of the lipids 1-palmitoyl-2-oleoyl-sn-glycero-3-phosphocholine (POPC), 1-palmitoyl-2-oleoyl-sn-glycero-3-phospho-L-serine (POPS), 1-Hexadecanoyl-2-(9Z-Octadecenoyl)-sn-Glycero-3-Phosphoglycerol (POPG) and Cholesterol (Chol) were employed. Bacterial liposomes were prepared with a 75:25 ratio of POPC:POPG and mammalian liposomes were prepared with a 65:5:30 ratio of POPC:POPS:Chol. Lipid solutions were thoroughly homogenised, and the solvent was evaporated with the use of a dry N2 steam to yield a lipid cake. […] The lipid film was subsequently hydrated with a 5(6)-CF solution (50 mM CF, 10 mM PBS, 90 mM NaCl, pH 7.4). Following a 10 min incubation on orbital shaker (50 min^−1), the solution was vortexed for 60 s on medium speed. A mini extruder (Avanti Polar Lipids, Inc., United States) was employed and 21 extrusions were performed through a 0.1 µm filter membrane (Nuclepore track-etched hydrophilic membrane, Cytiva, Whatman, MA, United States), resulting in monodispersed unilamellar liposomes. Directly before use the liposomes were purified from unencapsulated CF by filtration through a gel filtration column (PD Minitrap G-25 column, Cytiva, United States), against PBS buffer (10 mM, pH 7.4).
# (§4) Peptide and lipopeptide activity towards liposome models were evaluated using a carboxyfluorescein (CF) release assay. Liposomes were diluted in PBS (10 mM, pH 7.4) to a final lipid concentration of 25 µM and incubated with peptides (10^–5–10^2 µM) in a 96-well plate (n = 3). CF release was monitored using an Infinite M1000 PRO plate reader every 2.5 min for 1 h. Full (100%) CF release was obtained by addition of 1% Triton X-100 solution followed by 10 min incubation. CF release percentage was evaluated according to the formula 100 * (F − F0)/(FT − F0), where F indicates the instantaneous fluorescence, FT the total fluorescence and F0 the background fluorescence prior to peptide addition. Data were fitted to a Hill-1 curve using MATLAB R2019a (The MathWorks Inc., Natick, Massachusetts, United States) and the half maximum effective concentration (EC50) was extracted.
# human erythrocytes = assay: Hemolytic activity; format: cell-based; settings: 15% suspension in PBS, 1 h, 37 °C, absorbance 540 nm, highest tested concentration 100 µM
# Protocol: The hemolytic activity of the lipopeptides was investigated by collecting blood from healthy volunteers in heparinized vacutainers. Briefly, the blood was centrifuged at 600 × g for 5 min and the erythrocyte pellet was washed three times in PBS. The cells were then suspended in PBS and added to 96-well plates (15% erythrocyte suspension/well), containing the lipopeptides with two-fold serial dilution. The plates were incubated for 1 h at 37 °C followed by centrifugation for 5 min at 900×g and absorbance measurement of the supernatants at 540 nm. Hemolytic activity (%) was calculated by subtracting the negative control from all values and normalization against the positive control (0.5% Triton X-100), that was set to 100%. All experiments, each in duplicate, were repeated three times.
# [3] = Carboxyfluorescein release assay, mammalian liposome model; format: biochemical; settings: 65:5:30 POPC:POPS:Chol. liposomes, 25 µM lipid, 10 mM PBS pH 7.4, 10^–5–10^2 µM peptide, 60 min, fluorescence, Hill fit, n = 3; read-out: EC50 Mammalial (concentration that triggers 50% CF release)
# Protocol: as §3, §4
# S. aureus (ATCC 29213) = format: cell-based; settings: Table 6; ATCC 29213; checkerboard assay, 50:50 PBS/LB-broth, 200 µL
# Protocol: as §2, with “Two-fold serial dilutions of the lipopeptides were used, and the final concentrations ranged from 0.19 to 100 µM.” left out, “Synergy was defined as FIC/FBC ≤ 0.5, additive when 0.5 < FIC/FBC ≤ 1, indifferent when 1 < FIC/FBC < 2 and antagonistic when FIC/FBC ≥ 2.” left out
SMILES,S. aureus MIC [1] [µM],E. coli MIC (E. coli (K-12 MG1655)) [µM],EC50 [2] [nM],EC50 [3] [nM],S. aureus MBC [1] [µM],E. coli MBC (E. coli (K-12 MG1655)) [µM],"HC, hemolytic concentration at 5% hemolytic activity (human erythrocytes) [µM]","S. aureus MBC, antibiotic alone (S. aureus (ATCC 29213)) [µg/mL]","S. aureus MIC, antibiotic alone (S. aureus (ATCC 29213)) [µg/mL]"
CCCCCC(=O)N[C@H](CC(C)C)C(=O)NCC(=O)N[C@H](CC(C)C)C(=O)N[C@H](CCCCN)C(=O)N[C@H](CC(C)C)C(=O)N[C@H](CC(C)C)C(=O)N[C@H](Cc1c[nH]c2ccccc12)C(=O)N[C@H](CO)C(=O)N[C@H](C)C(=O)N[C@H](Cc1ccc(O)cc1)C(=O)N[C@H](CCCCN)C(=O)N[C@H](Cc1c[nH]cn1)C(=O)N[C@H](CCCNC(=N)N)C(=O)N[C@H](CCCCN)C(=O)N[C@@H](C(=O)N[C@H](CC(C)C)C(N)=O)[C@H](C)O [D-6-C6-Leu] (Hexanoyl-[dL]G[dL][dK][dL][dL][dW][dS][dA][dY][dK][dH][dR][dK][dT][dL]-NH2),1.5,3.1,130,1220,1.5,3.1,65,–,–
CCCCCC(=O)N[C@H](CC(C)C)C(=O)NCC(=O)N[C@@H](C(=O)N[C@H](CCCCN)C(=O)N[C@@H](C(=O)N[C@H](CC(C)C)C(=O)N[C@H](Cc1c[nH]c2ccccc12)C(=O)N[C@H](CO)C(=O)N[C@H](C)C(=O)N[C@H](Cc1ccc(O)cc1)C(=O)N[C@H](CCCCN)C(=O)N[C@H](Cc1c[nH]cn1)C(=O)N[C@H](CCCNC(=N)N)C(=O)N[C@H](CCCCN)C(=O)N[C@@H](C(=O)N[C@@H](C(N)=O)[C@H](C)CC)[C@H](C)O)[C@H](C)CC)[C@H](C)CC [D-6-C6] (Hexanoyl-[dL]G[dI][dK][dI][dL][dW][dS][dA][dY][dK][dH][dR][dK][dT][dI]-NH2),3.1,3.1,130,4990,3.1,3.1,> 100,–,–
CCCCCCC(=O)N[C@H](CC(C)C)C(=O)NCC(=O)N[C@H](CC(C)C)C(=O)N[C@H](CCCCN)C(=O)N[C@H](CC(C)C)C(=O)N[C@H](CC(C)C)C(=O)N[C@H](Cc1c[nH]c2ccccc12)C(=O)N[C@H](CO)C(=O)N[C@H](C)C(=O)N[C@H](Cc1ccc(O)cc1)C(=O)N[C@H](CCCCN)C(=O)N[C@H](Cc1c[nH]cn1)C(=O)N[C@H](CCCNC(=N)N)C(=O)N[C@H](CCCCN)C(=O)N[C@@H](C(=O)N[C@H](CC(C)C)C(N)=O)[C@H](C)O [D-6-C7-Leu] (Heptanoyl-[dL]G[dL][dK][dL][dL][dW][dS][dA][dY][dK][dH][dR][dK][dT][dL]-NH2),1.5,3.1,130,1020,1.5,3.1,35,–,–
CN[C@H](CC(C)C)C(=O)N[C@H]1C(=O)N[C@@H](CC(N)=O)C(=O)N[C@H]2C(=O)N[C@H]3C(=O)N[C@H](C(=O)N[C@H](C(=O)O)c4cc(O)cc(O)c4-c4cc3ccc4O)[C@H](O)c3ccc(c(Cl)c3)Oc3cc2cc(c3O[C@@H]2O[C@H](CO)[C@@H](O)[C@H](O)[C@H]2O[C@H]2C[C@](C)(N)[C@H](O)[C@H](C)O2)Oc2ccc(cc2Cl)[C@H]1O [Vancomycin],–,–,–,–,–,–,–,0.78,0.78

# Continued, in another order:
S. aureus MIC [1] [µM],E. coli MIC (E. coli (K-12 MG1655)) [µM],EC50 [2] [nM],EC50 [3] [nM],SMILES,S. aureus MBC [1] [µM],E. coli MBC (E. coli (K-12 MG1655)) [µM],"HC, hemolytic concentration at 5% hemolytic activity (human erythrocytes) [µM]","S. aureus MBC, antibiotic alone (S. aureus (ATCC 29213)) [µg/mL]","S. aureus MIC, antibiotic alone (S. aureus (ATCC 29213)) [µg/mL]"
1.5,3.1,290,1470,CCCCCCC(=O)N[C@H](CC(C)C)C(=O)NCC(=O)N[C@@H](C(=O)N[C@H](CCCCN)C(=O)N[C@@H](C(=O)N[C@H](CC(C)C)C(=O)N[C@H](Cc1c[nH]c2ccccc12)C(=O)N[C@H](CO)C(=O)N[C@H](C)C(=O)N[C@H](Cc1ccc(O)cc1)C(=O)N[C@H](CCCCN)C(=O)N[C@H](Cc1c[nH]cn1)C(=O)N[C@H](CCCNC(=N)N)C(=O)N[C@H](CCCCN)C(=O)N[C@@H](C(=O)N[C@@H](C(N)=O)[C@H](C)CC)[C@H](C)O)[C@H](C)CC)[C@H](C)CC [D-6-C7] (Heptanoyl-[dL]G[dI][dK][dI][dL][dW][dS][dA][dY][dK][dH][dR][dK][dT][dI]-NH2),3.1,6.2,65,–,–
1.5,6.2,130,1210,CCCCCC(=O)N[C@@H](CC(C)C)C(=O)NCC(=O)N[C@@H](CC(C)C)C(=O)N[C@@H](CCCCN)C(=O)N[C@@H](CC(C)C)C(=O)N[C@@H](CC(C)C)C(=O)N[C@@H](Cc1c[nH]c2ccccc12)C(=O)N[C@@H](CO)C(=O)N[C@@H](C)C(=O)N[C@@H](Cc1ccc(O)cc1)C(=O)N[C@@H](CCCCN)C(=O)N[C@@H](Cc1c[nH]cn1)C(=O)N[C@@H](CCCNC(=N)N)C(=O)N[C@@H](CCCCN)C(=O)N[C@H](C(=O)N[C@@H](CC(C)C)C(N)=O)[C@@H](C)O [L-6-C6-Leu] (Hexanoyl-LGLKLLWSAYKHRKTL-NH2),3.1,6.2,60,–,–
